According to PubChem BioAssay AID463199 (Broad Institute, 2010):
Activity calls are given as the source filed them.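 Rule for the calls: active = AC50, the dose giving half-maximal effect, exceeds a fixed cutoff for a compound that rescues yeast growth under heat; inactive = the rest, inconclusive results apart.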

Test system: S. cerevisiae Burl-1 ts mutant growth, BacTiter-Glo, 38.5C 24 h
Assay: restored growth of temperature-sensitive Burl-1 yeast – whole organism, S. cerevisiae, Burl-1 ts mutant, luminescence, counter-screen for SUMOylation pathway inhibitor project, dose response (AID 463199)

Row | Structure (SMILES) | AC50
1 | c1ccc(-c2cc3cc4c(cc3cn2)OCO4)cc1 | > 42 µM (inactive)
2 | Cc1nn(CCOc2ccccc2)c(=O)n1-c1ccccc1F | > 42 µM (inactive)
3 | CCOC(=O)c1oc2cc(OC(C)=O)ccc2c(=O)c1-c1ccc(OC)c(OC)c1 | > 42 µM (inactive)
4 | CN(C)C(=O)CCN1CCOCC1 | > 42 µM (inactive)
5 | CCOC(=O)c1ccc(NC(=O)c2c(NC(=O)CCC(=O)O)sc3c2CCCCC3)cc1 | > 42 µM (inactive)
6 | C=CCNC(=O)c1onc(CSc2cccc(C)c2)c1C(=O)O | > 42 µM (inactive)
7 | COc1cccc(S(=O)(=O)Nc2cccc(C(=O)N3CCOCC3)c2)c1 | > 42 µM (inactive)
8 | CC(=O)c1ccc(N=C2SCCCN2C(=O)C2CCCC2)cc1 | > 42 µM (inactive)
9 | C/C(=N\N=C(/N)SC1CC(=O)N(c2cccc(Cl)c2)C1=O)c1cccs1 (stereo unspecified) | > 42 µM (inactive)
10 | Cc1sc(NC(=O)c2ccc(F)cc2)c(CN2CCCCCC2)c1C | > 42 µM (inactive)
11 | C/C(CC1(O)C(=O)Nc2ccccc21)=N\O (stereo unspecified) | > 42 µM (inactive)
12 | CC(=O)Nc1cccc(OCC(O)Cn2c(C)nc3ccccc32)c1 (stereo unspecified) | > 42 µM (inactive)
13 | O=C(C1CCN(C2CC(=O)N(c3cccc(Cl)c3)C2=O)CC1)N1CCCC1 (stereo unspecified) | > 42 µM (inactive)
14 | O=C(CSc1ncnc2nc[nH]c12)Nc1ccccc1C(F)(F)F | > 42 µM (inactive)
15 | O=C(COC(=O)C1CC(=O)N(Cc2ccccc2)C1)Nc1ccccc1F (stereo unspecified) | > 21 µM (inactive)
16 | CCN1CCCC1CN(Cc1cc2ccc(C)cc2[nH]c1=O)C(=S)Nc1ccc(OC)cc1OC (stereo unspecified) | > 42 µM (inactive)
17 | CC(=O)Oc1cccc(N2C(=O)c3ccc(C(=O)Nc4c[nH]c(=O)[nH]c4=O)cc3C2=O)c1 | > 42 µM (inactive)
18 | Cc1ccc2nc(NC(=O)C3CCN(S(=O)(=O)c4cccnc4)CC3)sc2c1 | > 42 µM (inactive)
19 | COC(=O)c1ccccc1NC(=O)CSc1nnnn1CC(=O)O | > 42 µM (inactive)
20 | CCOC(=O)c1[nH]c2ccc(Br)cc2c1NC(=O)CCN1CCOCC1 | > 42 µM (inactive)
21 | Cc1nc(-c2ccc(Cl)cc2)sc1C1(C)CC(c2c(Cl)cccc2Cl)=NO1 (stereo unspecified) | > 42 µM (inactive)
22 | O=C(NCCCN1CCN(c2ccccc2F)CC1)Nc1ccccc1[N+](=O)[O-] | 25.4 µM
23 | Cc1cccc(OCCN2CSC(=S)N(C)C2)c1 | 31.6 µM
24 | CC1(OC(=O)CCc2ccccc2)C(=O)C=C2C=C(c3ccc(C#N)cc3)N(CC3CC3)C=C2C1=O (stereo unspecified) | > 42 µM (inactive)
25 | NS(=O)(=O)c1ccc(CCNC(=O)c2ccc([N+](=O)[O-])s2)cc1 | > 42 µM (inactive)
26 | CN(C)/C=C/C(=O)c1ccncc1 | > 42 µM (inactive)

Row | Structure (SMILES) | AC50
27 | O=C(NCCNc1ccc(Cl)cc1[N+](=O)[O-])c1ccccc1F | > 42 µM (inactive)
28 | COc1cccc(NC(=O)c2nn(C34CC5CC(CC(C5)C3)C4)cc2[N+](=O)[O-])c1 | > 42 µM (inactive)
29 | CN(C)C(=O)c1c2c(nc3ccccc13)CCCC2 | > 42 µM (inactive)
30 | Cc1nc2ccc(NC(=O)c3ccc(S(=O)(=O)N4CCOCC4)cc3)cc2s1 | > 42 µM (inactive)
31 | CC(C)[N+]1(C)[C@@H]2CC[C@@H]1CC(OC(=O)C(CO)c1ccccc1)C2 (stereo partly specified) | > 42 µM (inactive)
32 | CC1(C)Cc2c(c(N3CCCC3)nc3sc4c(N5CCN(CCO)CC5)ncnc4c23)CO1 | > 42 µM (inactive)
33 | Cc1ccc(NC(=O)COC(=O)c2csc3c2CCC(C)C3)cc1S(=O)(=O)N1CCCCC1 (stereo unspecified) | > 42 µM (inactive)
34 | COc1ccc(-n2c(SCC(=O)NCC3CCCO3)nc3c(c2=O)SCC3)cc1OC (stereo unspecified) | > 42 µM (inactive)
35 | C=CCn1c(=N)c(C(=O)NCCCOC)cc2c(=O)n3ccccc3nc21 | > 42 µM (inactive)
36 | c1ccc2cc(C3CCCCC3)ncc2c1 | > 42 µM (inactive)
37 | N#C/C(=C\c1cn(-c2ccccc2)nc1-c1cccnc1)c1nnc2n1CCCCC2 | > 42 µM (inactive)
38 | CCOC(=O)NNC(=O)CCn1c2c(c3ccccc31)CCCC2 | > 42 µM (inactive)
39 | COc1ccccc1NC(=O)COC(=O)CC(C)(C)CC1=NS(=O)(=O)c2ccccc2N1 | > 42 µM (inactive)
40 | COc1cc(S(=O)(=O)NC2CCCC2)c(OC)cc1C | > 42 µM (inactive)
41 | Cc1ccc(NC(=O)N[C@H](C(=O)O)C(C)C)c(C)c1 | > 42 µM (inactive)
42 | O=Cc1ccc(Oc2cccc(C(F)(F)F)c2)nc1 | > 42 µM (inactive)
43 | CCOc1ccc(Cl)cc1S(=O)(=O)N1CCC(C(=O)NCc2cccnc2)CC1 | > 42 µM (inactive)
44 | COCCNCc1ccccc1 | > 42 µM (inactive)
45 | CC1=CC(=O)C=CC1(C)C(Cl)(Cl)Cl (stereo unspecified) | > 42 µM (inactive)
46 | CCOCCn1c(-c2ccc(OC)cc2)nc2ccccc21 | > 42 µM (inactive)
47 | CCOC(=O)C1(CCOc2ccccc2)CCN(Cc2cccc(OC)c2O)CC1 | > 42 µM (inactive)
48 | COc1ccc2c(c1)OC[C@H]1[C@H]2N2C(=O)c3ccccc3NC(=O)[C@@]2(C)[C@H]1c1ccccc1 | > 42 µM (inactive)
49 | O=C(Oc1ccc2c(c1)OCO2)c1cccs1 | > 42 µM (inactive)
50 | COc1cc(/C=N/NC(=O)c2cccnc2)ccc1OCC(=O)N1CCOCC1 | > 42 µM (inactive)
51 | N#C/C(=C\c1c(N(Cc2ccccc2)Cc2ccccc2)nc2ccccn2c1=O)C(N)=O | > 42 µM (inactive)
52 | CCN(CC)C(=O)CSc1nnc(CNc2ccc(F)cc2)n1Cc1ccco1 | > 42 µM (inactive)

Row | Structure (SMILES) | AC50
53 | CC(C)(C)c1ccc(C(=O)COC(=O)CN2C(=O)NC3(CCCC3)C2=O)cc1 | > 42 µM (inactive)
54 | CCOc1ccc2[nH]c(=O)c(CN(Cc3ccco3)C(CC)c3nnnn3Cc3ccccc3)cc2c1 (stereo unspecified) | > 42 µM (inactive)
55 | CC1(C)CC(=O)c2cnc(NC(=O)CSc3nc4ccccc4o3)nc2C1 | > 42 µM (inactive)
56 | CCC(CC)C(=O)Nc1ccc(S(=O)(=O)Nc2nccs2)cc1 | 26 µM
57 | COc1ccccc1-c1sc2ccccc2c1-c1ccc2c(c1)OCO2 | > 42 µM (inactive)
58 | CCCc1nc(NCc2ccccc2)c(C#N)c2c1CCCC2 | > 42 µM (inactive)
59 | O=C(O)CSc1ncnc2sc(-c3ccccc3)cc12 | > 42 µM (inactive)
60 | Fc1ccc2c(c1)nnn2C1CCN(Cc2nnnn2C2CCCCC2)CC1 | > 42 µM (inactive)
61 | Cc1ccc(NC(=O)Cn2c(CCC(=O)O)ccc2-c2cccs2)cc1 | > 42 µM (inactive)
62 | CCN(CC(=O)N1CCCCCC1)S(=O)(=O)c1ccc(Cl)cc1 | > 42 µM (inactive)
63 | Cc1ccc(C(C(=O)NCC2CCCO2)N(Cc2ccccc2F)C(=O)Cn2nnc(-c3cccs3)n2)cc1 (stereo unspecified) | > 42 µM (inactive)
64 | C=C(C)Cc1c(C)c(C#N)c2[nH]c3ccccc3n2c1=O | > 42 µM (inactive)
65 | CCC1C(c2ccccc2)NC(c2ccccc2)CC1(O)c1ccc(F)cc1 (stereo unspecified) | > 42 µM (inactive)
66 | COc1cccc(/C=N/n2cnc3ccccc32)c1OC | > 42 µM (inactive)
67 | O=C(c1cccnc1)N1CCCC(Nc2ccc(F)cc2)C1 (stereo unspecified) | > 42 µM (inactive)
68 | COc1ccccc1NC(=O)NCCc1c[nH]c2ccccc12 | > 42 µM (inactive)
69 | CCOc1ccc(N2CC(C(=O)OC)CC2=O)cc1 (stereo unspecified) | > 42 µM (inactive)
70 | OCC1(Cc2cccc(Cl)c2)CCCN(Cc2ccc(F)c(F)c2)C1 (stereo unspecified) | > 42 µM (inactive)
71 | COc1ccc(Cn2nnnc2CN2CCN(c3ccc(OC)cc3)CC2)cc1 | > 42 µM (inactive)
72 | CC1CCCCN1C(=O)C(Cc1ccccc1)N1C(=O)C2CCCCC2C1=O (stereo unspecified) | > 42 µM (inactive)
73 | N=c1ncn(CC(O)CO)c2nc(N3CCOCC3)[nH]c12 (stereo unspecified) | > 42 µM (inactive)
74 | O=C(c1ccco1)N1CCN(CC(=O)N2c3ccccc3CCc3ccccc32)CC1 | > 42 µM (inactive)
75 | CCCc1nnc(NC(=O)c2cn(CC)c3cc(N4CCN(C)CC4)c(F)cc3c2=O)s1 | > 21 µM (inactive)
76 | CCCCC(O)(CCCC)C(=O)NN(C(=O)OC)c1ccc(C)cc1 | > 42 µM (inactive)
77 | CNC(=O)Nc1cc(NC(=O)NC)cc(C(F)(F)F)c1 | > 42 µM (inactive)
78 | COC(=O)CCC(=O)OC1(C)C(=O)C=C2C=C(C3CC3)N(Cc3ccc4c(c3)OCO4)C=C2C1=O (stereo unspecified) | > 42 µM (inactive)

Row | Structure (SMILES) | AC50
79 | CN(C(=O)C1CCCO1)c1nnc(-c2cnccn2)s1 (stereo unspecified) | > 42 µM (inactive)
80 | Cc1ccc(NC(=O)Cn2sc3nc(C)cc(C)c3c2=O)c(Cl)c1 | > 42 µM (inactive)
81 | O=Cc1ccccc1OCCN1CCCC1=O | > 42 µM (inactive)
82 | CC(=O)c1cccc(NC(=O)CN(c2cccc(F)c2)S(C)(=O)=O)c1 | > 42 µM (inactive)
83 | Cc1[nH]oc(=O)c1N=Nc1ccccc1 | > 42 µM (inactive)
84 | Cc1sc2nc(N)sc2c1C | > 42 µM (inactive)
85 | CCCc1ccc(S(=O)(=O)NCCc2ccncc2)cc1 | > 42 µM (inactive)
86 | C/C(CC(=O)NC1CCCCC1)=N\NC(=O)Cc1ccc(-c2ccccc2)cc1 | > 42 µM (inactive)
87 | Cc1nc(N)c(Cc2ccccc2F)c(N)n1 | > 42 µM (inactive)
88 | COc1cc(/C=N/n2c(C3CCCCC3)n[nH]c2=S)cc(OC)c1O | > 42 µM (inactive)
89 | O=c1[nH]cnc2cc(Cl)ccc12 | 4 µM
90 | O=C(Nc1ccc(S(=O)(=O)NC2=NCCCCC2)cc1)c1ccc(C(F)(F)F)cc1 | > 42 µM (inactive)
91 | CCOc1ccccc1CN1CCNC(=O)C1CC(=O)NCCN1CCOC1=O (stereo unspecified) | > 42 µM (inactive)
92 | Cc1ccc(N/N=C2/CCCNC2=O)cc1 | > 42 µM (inactive)
93 | O=S(=O)(Nc1ccc(-c2nc3cccnc3s2)cc1)c1cc(F)ccc1F | > 42 µM (inactive)
94 | CC[C@H]1CCCCc2ccccc2[C@@H](C(=O)C[C@@H](O)CC(C)=O)OC1=O | > 42 µM (inactive)
95 | Cc1c(NC(C)c2cc(Cl)ccc2O)c(=O)n(-c2ccccc2)n1C (stereo unspecified) | > 42 µM (inactive)
96 | COc1ccc(C2C(C(=O)Nc3cc(OC)c(OC)c(OC)c3)c3ccccc3C(=O)N2C)cc1 (stereo unspecified) | > 42 µM (inactive)
97 | Cc1noc(C)c1Cc1ccc(O)cc1 | > 42 µM (inactive)
98 | O=C(NNC(=O)c1ccccc1O)c1ccco1 | > 42 µM (inactive)
99 | COc1ccc(C(=O)OCC(=O)c2ccc(C)c(S(=O)(=O)N3CCOCC3)c2)cc1OC | > 42 µM (inactive)
100 | CCOC(=O)CSc1nc2ccccc2c(=O)n1CC(C)C | > 42 µM (inactive)
101 | O=C(CCSc1ccccc1)Nc1ncccn1 | > 42 µM (inactive)
